Laboratory results as given in US20220088204A1, “ANTICANCER DRUGS AND METHODS OF MAKING AND USING SAME” (YALE UNIVERSITY, priority 2019, published 2022).
“Also recorded” adds a separate entry of the source.

Tests used:
[1] = tested on: PEO1 ovarian cancer cells; test: pH-dependent cell growth inhibition, transient treatment; type: cell-based; details: pH 7.4 vs pH 6.2
Experimental: FIG. 9 depicts pH-dependent cell growth inhibition of PEO1 ovarian cancer cells in culture, treated transiently with various prodrugs of the invention, as described above.
FIG. 10 depicts pH-dependent cell growth inhibition of PEO1 ovarian cancer cells in culture, treated transiently with an anticancer kinase inhibitor drug, Osimertinib, or a compound of the invention, based on an active core of that drug, YU253673.
(§1) In order to evaluate pH-dependent activity, treatments are performed at atypical cell culture conditions. […] Several cell lines have been evaluated using this method and for each, cell seeding density and treatment duration is independently experimentally determined. Each experiment is normalized to sham and complete activity controls for each pH condition.
Similar results have been obtained from pH-dependent cell growth inhibition assays with other classes of Drug using the prodrug approach.

[2] = Blood levels after tail vein injection; type: in vivo, adult female balb/c mice
Experimental: Given that the drug's distribution and clearance can be expected to be substantially complete by about 6 hours after administration, in certain embodiments the peak intracellular dose is achieved long before this process might interfere to a significant degree, even assuming the altered metabolite is indeed compromised in its activity. […] In certain embodiments, the serum stability of YU241528 allows for effective therapy. […] In certain embodiments, the prodrug undergoes a different elimination path, as hepatobiliary elimination of weakly-ionic organic substances is sensitive to charge, size, and lipophilicity.

[3] = Serum stability of prodrug in 20% mouse serum (LCMS, 490 nm); type: in vitro ADME; details: 37° C.
Experimental: FIG. 4A depicts liquid chromatography data showing the stability of YU241528 in serum.
The prodrug strategies of this invention are thought to impart their benefits during the distribution and cell uptake steps of anticancer therapy. In certain embodiments, a prodrug is stable in the blood for a period sufficient to allow for cell uptake and systemic clearance. To test this, 50 μM YU241528 in a solution of PBS, pH 7.4, containing 20% mouse serum was incubated at 37° C. At regular intervals, aliquots were taken and mixed with 2 volumes of ethanol to precipitate serum proteins, then centrifuged. Supernatants were analyzed by LCMS. […] The predominant peak was identified as YU241528 by mass spectrometry.

[4] = pKA of the ionizable group; type: physicochemical; details: read-out: acidic pKA of the carboxyl group
Excerpt: The Henderson-Hasselbalch equation allows for calculating the neutral fraction of an ionizable drug at healthy tissue vs. tumor extracellular pH, and thus predicting the associated cell-permeable fractions. […] The carboxyl group of YU241528 has an acidic pKA of ˜4.4, so the predicted membrane permeable fraction is ˜8-fold less at a pH of 7.4 than at 6.5.

HeLa cells = test: pH-dependent cell uptake by flow cytometry; type: cell-based; details: HeLa cells in suspension, 5 μM, 1 hour, pH 7.4 vs pH 6.5
Excerpt: FIGS. 5A-5B depict representative flow cytometry traces of pH-dependent cell treatments. […] Normalized cell counts (Y-axes) are plotted vs. doxorubicin fluorescence intensity per cell (X-axes).

[5] = Reductive activation / drug release in 5 mM GSH (simulated cytosol), LCMS; type: in vitro ADME; details: PBS containing 5 mM GSH, PBS pH 7.4, 5 mM GSH, 37° C., read-out: t1/2 of reduction of the disulfide
Experimental: In certain embodiments, the prodrug releases the active form of the drug once inside a cancer cell. Once inside the cell, drug release can be triggered by reduction of the disulfide bond in the linker. To evaluate the reductive activation of drug release, 50 μM YU241528 in a solution of PBS, pH 7.4, containing 5 mM GSH (a typical intracellular concentration of the predominant biological reducing agent) was incubated at 37° C. Aliquots were taken at regular intervals and analyzed by LCMS.

[6] = Body weight of treated tumor-bearing mice; type: in vivo, Balb/c mice; details: IV once daily for 5 days, mice with EMT-6 flank tumors
Excerpt: FIG. 7 depicts representative in vivo study on the efficacy and toxicity of compounds of the invention. […] Mean tumor volume and mean body weight graphs are shown for groups of 10 tumor-bearing mice.

[7] = tested on: MDA-MB-231 breast cancer cells; test: pH-dependent cell growth inhibition, CellTiter-Glo; type: cell-based, Human; details: 6 hours treatment at pH 7.4 vs pH 6.2, 72 hours growth
Experimental: Cells treated for 6 hours at pH 7.4 (normal physiological pH, X traces) or pH 6.2 (acidic solid tumor pH, Y traces) were subsequently allowed to grow in normal growth medium for 72 hours, then cell viability was evaluated using the CellTiter-Glo assay kit (Promega). Normalized percent cell growth inhibition is plotted on the left side of each panel and IC50 values reported at each pH from non-linear regression analysis.
as §1
Human MDA-MB-231 breast cancer cells seeded at low density on tissue culture treated 384-well plates, allowed to adhere and grow in serum-supplemented growth medium for 24 hours, then treated under pH-controlled conditions for 6 hours, and finally washed and grown in fresh growth media for 72 hours were assessed for cell survival using the CellTiter-Glo assay system (Promega) (FIG. 6).

[8] = cited from earlier work

SMILES: C=CC(=O)Nc1cc(Nc2nccc(-c3cn(C)c4ccccc34)n2)c(OC)cc1N(C)CCN(C)C [Osimertinib]
- pH-dependent bias of cell growth inhibition [1]: slightly lower IC50 value at healthy pH 7.4

SMILES: COc1cccc2c1C(=O)c1c(O)c3c(c(O)c1C2=O)C[C@@](O)(C(=O)CO)C[C@@H]3O[C@H]1C[C@H](NC(=O)OCCSSCc2ccc(C(=O)O)cc2)[C@H](O)[C@H](C)O1 [YU241528]
- level in the blood at 6 hours post injection ([2]; 6 hours): detectable levels
- level in the blood at 24 hours post injection ([2]; 24 hours): undetectable
- half-life ([2]; female, balb/c, mouse, blood, intravenous, read-out: non-compartmental half-life in blood (converted)): ~1 h
- release of free doxorubicin in serum ([3]; 50 μM, 20% mouse serum, over 6 hours of incubation): no active doxorubicin is released; also recorded: no free doxorubicin was detected
- half-life at 50 μM ([3]; mouse, 20% mouse serum in PBS, pH 7.4, 50 μM, PBS pH 7.4, 20% mouse serum, read-out: t1/2 of interaction with serum): > 6 h
- pKa [4]: ~4.4
- pH preference of cell uptake (HeLa cells): preferentially taken up by cells at cancerous pH 6.5 versus cells at normal pH 7.4
- half-life at 50 μM [5]: ~2.7 min

SMILES: COc1cccc2c1C(=O)c1c(O)c3c(c(O)c1C2=O)C[C@@](O)(C(=O)CO)C[C@@H]3O[C@H]1C[C@H](NC(=O)OCCSSCCCCCCCC(=O)O)[C@H](O)[C@H](C)O1 [YU241531]
- weight loss (mean body weight) compared to sham treated controls [6]: no detectable weight loss
- pH-dependent bias of cell growth inhibition [7]: greater growth inhibition at acidic tumor pH

SMILES: COc1cccc2c1C(=O)c1c(O)c3c(c(O)c1C2=O)C[C@@](O)(C(=O)CO)C[C@@H]3O[C@H]1C[C@H](NC(=O)OCCSSCCCc2c(F)c(F)c(O)c(F)c2F)[C@H](O)[C@H](C)O1 [YU244206]
- weight loss (mean body weight) compared to sham treated controls [6]: no detectable weight loss
- pH-dependent bias of cell growth inhibition [7]: greater growth inhibition at acidic tumor pH

SMILES: COc1cccc2c1C(=O)c1c(O)c3c(c(O)c1C2=O)C[C@@](O)(C(=O)CO)C[C@@H]3O[C@H]1C[C@H](N)[C@H](O)[C@H](C)O1 [doxorubicin, reference compound]
- pH-dependent bias of cell growth inhibition [7]: greater growth inhibition at basic healthy pH
- pH preference of cell uptake (HeLa cells): greater uptake into cells at normal physiologic pH 7.4 than into cells at cancerous pH 6.5
- basic pKA of the amine group [8]: ~8
